The values that follow come from patent US11612615B2, “Combined administration of cysteine-aspartic protease inhibitors with P2Y12 receptor antagonists protects the heart against myocardial infarction” (The University of South Alabama, priority 2017, dated 2023).

“Also recorded” adds a separate entry of the source.

The test system of experiment [1] is I/R injury of the heart (LAD occlusion). The experiment is described as follows: In situ open-chest LAD occlusion, 60-min ischemia/120-min reperfusion, infarct size by TTC staining. The format is in vivo, Sprague-Dawley rats. To be noted: for infarct size / cardioprotection (in words): open chest rat hearts, 60 min ischemia/120-min reperfusion, treatment just prior to reperfusion; for infarction, % of the risk zone: rat, 60-min LAD ligation/120-min reperfusion, VX-765 32 mg/kg iv 5 min, cangrelor 60 μg/kg iv bolus + 6 μg/kg/min, ticagrelor 30 mg/kg ip 10 min prior to reperfusion, mean ± standard error.

Experiment [2] concerns blood-free isolated rat hearts (global I/R injury). As to the kind of experiment: Ex vivo isolated buffer-perfused heart, 40-min global ischemia/120-min reperfusion. The protocol:
To examine effects of VX-765 on blood-free isolated hearts, rats were anesthetized as described above. Animals were intubated through tracheotomy and positive pressure ventilation initiated with 100% oxygen. A thoracotomy was performed and the heart was quickly excised from the chest cavity for mounting on a Langendorff apparatus (within one minute). The coronary arteries were retroperfused with Krebs buffer through the aortic root and a latex balloon was placed in the lumen of the left ventricle allowing volume adjustment to 100 mmHg peak ventricular pressure. After a 20-min period of equilibration, perfusion was stopped for 40-min to induce global ischemia. The heart was maintained in a water-jacketed chamber filled with buffer during the occlusion period at a constant temperature of 37° C. Perfusion was re-initiated and continued for 120-min. The balloon was deflated at the beginning of reperfusion so subendocardial perfusion would not be impaired by any elevation in luminal diastolic pressure. The balloon was reinflated to zero diastolic pressure (unstressed ventricular volume) so final developed pressure could be measured. The coronary effluent was sampled immediately prior to ischemia, immediately at reperfusion, and serially thereafter every 20-min. The heart was perfused with buffer containing either vehicle (DMSO) or VX-765 for 10-min prior to ischemia and again during reperfusion. Two groups were tested: 1) DMSO vehicle control perfused at 0.5 mL/L of buffer and 2) VX-765, 30 μM final concentration. After 120 minutes reperfusion, developed pressure was measured as the difference between end-systolic and end-diastolic left ventricular pressure with a transducer attached to the intraventricular balloon. Infarct size was measured as above. Collected effluent was analyzed for lactate dehydrogenase (LDH) as previously described. An independent aliquot was concentrated 20-fold using a 3,000 MW cut-off ultrafilter (Millipore) and assayed for IL-113 by ELISA (ThermoFisher Scientific).

The next experiment has as its system IL-1β. The experiment is described as follows: In situ open-chest LAD occlusion, 60-min ischemia/30-min reperfusion: serum IL-1β ELISA. The experiment is classed as in vivo, rat. To be noted: VX-765 32 mg/kg 5-min prior to reperfusion, FIG. 4A. The protocol:
(§1) Applicants' standard in situ open chest LAD occlusion protocol was modified to examine effects of a 30-min reperfusion period on heart tissue enzymes and metabolic function. Two groups were tested with infusions occurring 5-min prior to reperfusion: 1) vehicle control DMSO (the VX-765 solvent) was administered as (1.0 mL of 100% DMSO)×(kg body weight) with the final infusion volume adjusted to 0.9 mL with normal saline; and 2) VX-765, 32 mg/kg. Immediately prior to experiment terminus, blood was collected and serum assayed by ELISA for levels of circulating IL-113. At experiment terminus, the heart was removed from the chest and mounted on a Langendorff apparatus where it was perfused with normal saline. The coronary branch was re-occluded and 15 μm fluorescent microspheres were infused to identify the ischemic zone followed by acquisition of biopsies from both ischemic and non-ischemic zones. […] Normalized amounts of protein were resolved by SDS-PAGE (4-20% Tris-Glycine gradient gels) and analyzed by immunoblotting using antibodies against Caspase-1, glyceraldehyde-3-phosphate dehydrogenase (GAPDH), Aldolase-A, and Hexokinase II. […] For all blotting experiments, protein transfer membranes were first stained with Coomassie Brilliant Blue (CBB) and analyzed on the LiCor Odyssey for total protein levels. […]
(An ELISA detects its analyte on a solid surface through an enzyme-linked reagent.)

Experiment [3] deals with Caspase-1, GAPDH, Aldolase-A, Hexokinase II. As to the kind of experiment: 60-min ischemia/30-min reperfusion: immunoblotting of heart tissue biopsies. The experiment is classed as in vivo, rat. The protocol:
(§2) Applicants' standard in situ open chest LAD occlusion protocol was modified to examine effects of a 30-min reperfusion period on heart tissue enzymes and metabolic function. Two groups were tested with infusions occurring 5-min prior to reperfusion: 1) vehicle control DMSO (the VX-765 solvent) was administered as (1.0 mL of 100% DMSO)×(kg body weight) with the final infusion volume adjusted to 0.9 mL with normal saline; and 2) VX-765, 32 mg/kg. Immediately prior to experiment terminus, blood was collected and serum assayed by ELISA for levels of circulating IL-113. At experiment terminus, the heart was removed from the chest and mounted on a Langendorff apparatus where it was perfused with normal saline. The coronary branch was re-occluded and 15 μm fluorescent microspheres were infused to identify the ischemic zone followed by acquisition of biopsies from both ischemic and non-ischemic zones. Viable samples were immediately prepared for high resolution respirometry using the Oroboros oxygraph O2K as previously described. In parallel, a portion of the biopsied tissue was immediately ejected into liquid nitrogen and stored at −80° C. Subsequently, tissues were homogenized and solubilized for analyses of total protein. Normalized amounts of protein were resolved by SDS-PAGE (4-20% Tris-Glycine gradient gels) and analyzed by immunoblotting using antibodies against Caspase-1, glyceraldehyde-3-phosphate dehydrogenase (GAPDH), Aldolase-A, and Hexokinase II. In a separate set of blots, samples were assayed for protein oxidation (carbonylation) using the oxidized protein western blot kit (Abcam, oxyblotting). For all blotting experiments, protein transfer membranes were first stained with Coomassie Brilliant Blue (CBB) and analyzed on the LiCor Odyssey for total protein levels. These CBB data were used to normalize all immuno- and oxyblotting data.
(In general: In western blotting, separated proteins are transferred to a membrane and probed.)

For experiment [4], the system named is mitochondrial complexes (Complex-I, Complex-III). The experiment is described as follows: 60-min ischemia/30-min reperfusion: high resolution respirometry of heart tissue biopsies. The format is in vivo, rat. Here is the method:
as §2
Tissue mitochondrial function is reported as the amount of oxygen consumed (i.e., JO2). In this protocol, heart tissues are harvested 30-min after reperfusion to ensure tissue retention of mitochondrial function and permeabilized with detergents to allow direct assessment of each mitochondrial complex via addition of specific substrates (i.e., electron donors) and poisons. Using this early 30-min reperfusion time point allows differentiation of dysfunctional mitochondrial complex activities from the absolute loss of function occurring at later time points after cell death had ensued. As a further level of experimental control, mitochondrial complex activities were assayed in non-ischemic and ischemic zone tissues isolated from animals treated with vehicle control (DMSO) or the Caspase-1 inhibitor VX-765.

A further experiment concerns protein carbonylation. The experiment is described as follows: 60-min ischemia/30-min reperfusion: protein oxidation (carbonylation) oxyblotting of heart tissue. The experiment is classed as in vivo, rat. To be noted: ischemic and non-ischemic tissues, FIG. 5D. Here is the method:
as §1

Experiment [5] has as its system buffer perfused mouse hearts (global ischemia). The experiment is described as follows: Isolated buffer-perfused mouse heart, 35 or 50 min global ischemia/2 h reperfusion, infarct size. The arrangement: species or system C57BL/6 mice. To be noted: for infarct size reduction (in words): mouse heart, 30 uM VX-765 10 min prior to ischemia and throughout reperfusion, 9 uM emricasan first 20 min of reperfusion, FIG. 9. Here is the method:
Hearts were removed from pentobarbital-anesthetized C57BL/6 mice and quickly (less than 3 min) mounted on a Langendorff perfusion apparatus where they were retroperfused with Krebs buffer at 100 mmHg pressure and at 37 Deg C. After 20 min perfusion to equilibrate the perfusion was stopped to create global ischemia. After and index ischemia of either 35 or 50 min the hearts were reperfused for 2 h and infarct size was measured by triphenyltetrazolium staining. Treatments included 30 uM VX-765 for 10 min prior to ischemia and throughout reperfusion, 9 uM emricasan for the first 20 min of reperfusion only, Ischemic preconditioning (IPC) with three cycles of 5 min ischemic Plus 5 min reperfusion prior to the index ischemia, or IPC+emricasan.

Experiment [6] has as its system I/R injury of the heart (LAD occlusion). Particulars: VX-765 16 mg/kg body weight 30-min prior to onset of ischemia; cited from earlier work.
The test system of the next experiment is coronary I/R. Particulars: rat models of coronary I/R; cited from earlier work.

As for `CCO[C@@H]1OC(=O)C[C@@H]1NC(=O)[C@@H]1CCCN1C(=O)[C@@H](NC(=O)c1ccc(N)c(Cl)c1)C(C)(C)C` [VX-765, (S)-1-((S)-2-{[1-(4-amino-3-chloro-phenyl)-methanoyl]-amino}-3,3-dimethyl-butanoyl)-pyrrolidine-2-carboxylic acid ((2R,3S)-2-ethoxy-5-oxo-tetrahydro-furan-3-yl)-amide], in experiment [1] (VX-765 iv prior to ischemia, data not shown), the “dose dependence of infarct size reduction (pilot studies)” value is “independent of the dose above 16 mg/kg”. Further, in experiment [1], the “infarct size / cardioprotection (in words)” value is reported as “reduced infarct size” and the “infarction, % of the risk zone” value is listed as 38.6±3.9%. Moreover, the “LDH release into coronary effluent” value in experiment [2] (VX-765 30 μM, FIG. 3C) is “all but abolished”. For the same compound, in [2] (blood free isolated buffer-perfused heart, FIG. 3), the “protection against global I/R injury (in words)” value is recorded as “protects against global I/R injury”. Moreover, the “left ventricular developed pressure” value in experiment [2] (end of 120-min reperfusion, VX-765 30 μM) worked out at 20.5±4.2 mmHg. For the same compound, the average infarction in experiment [2] (isolated rat heart, VX-765 30 μM in perfusate prior to ischemia and during reperfusion) came out at 45.8±1.5%. In the experiment on IL-1β, the “IL-1β level in blood, vehicle (DMSO) compared to VX-765” value is recorded as “significantly higher levels of IL-113 in blood when compared to animals treated with VX-765”. In addition, the “levels of active Caspase-1 in tissue” value in experiment [3] (ischemic tissue, VX-765 32 mg/kg, FIG. 4B) is “did not prevent Caspase-1 activation”. In addition, the GAPDH degradation entry in [3] (ischemic zone, FIG. 4C) is “prevented degradation of GAPDH in the ischemic zone”. Moreover, the aldolase-A degradation entry in experiment [3] (ischemic zone, FIG. 4D) was “partially prevented degradation of aldolase-A”. Besides, the “hexokinase II degradation (negative control)” value in [3] (ischemic zone, FIG. 4E) is “no effect in hexokinase II”. Further, the Complex-III activity entry in experiment [4] (compared to vehicle, FIG. 5C) is given as “no significant differences”. Further, the “JO2 in different states of mitochondrial respiration” value in [4] (different substrates, FIG. 7) is given as “none of the heart tissues from any group displayed JO2 differences”. In experiment [4] (non-ischemic and ischemic tissues, compared to vehicle, FIG. 5B), the Complex-I activity entry is listed as “significantly decreased Complex-I activity”. Also, in experiment [4] (tissues reperfused for 30-min, FIG. 5A), the “respiratory ratio (mitochondrial fitness)” value was “not different among all groups”. For the same compound, in the experiment with protein carbonylation, the protein carbonylation result is on record as “no differences in protein carbonylation”. Besides, in experiment [5], the “infarct size reduction (in words)” value is given as “similarly reduced infarct size; also recorded: equipotent for infarct size reduction”. In [6], the “cardioprotection, previously reported” value is recorded as “extremely cardioprotective”.
As for `CSCCNc1nc(SCCC(F)(F)F)nc2c1ncn2[C@@H]1O[C@H](COP(=O)(O)OP(=O)(O)C(Cl)(Cl)P(=O)(O)O)[C@@H](O)[C@H]1O` [cangrelor], in experiment [1], the “infarct size / cardioprotection (in words)” value is given as “reduced infarct size” and the “infarction, % of the risk zone” value stood at 43.8±2.4%.
In the case of `C[C@H](NC(=O)C(=O)Nc1ccccc1C(C)(C)C)C(=O)N[C@@H](CC(=O)O)C(=O)COc1c(F)c(F)cc(F)c1F` [emricasan], the “protection in combination with ischemic preconditioning (IPC)” value in experiment [5] (index ischemia 50 min, IPC three cycles 5 min ischemia/5 min reperfusion, 9 uM emricasan) is “additive protection”. Besides, the “infarct size reduction (in words)” value in [5] is “similarly reduced infarct size; also recorded: equipotent for infarct size reduction”; in experiment [5] (listed as Emricasan), “as protective as VX-765 pretreatment”.
Regarding `CCCSc1nc(N[C@@H]2C[C@H]2c2ccc(F)c(F)c2)c2nnn([C@@H]3C[C@H](OCCO)[C@@H](O)[C@H]3O)c2n1` [ticagrelor], in [1] (IPOC three cycles of 30 s reperfusion/30 s occlusion at end of 60 min ischemia, FIG. 10), the “protection when combined with ischemic postconditioning (IPOC)” value is “no more protective than either alone”. For the same compound, in experiment [1], the “infarct size / cardioprotection (in words)” value is “reduced infarct size; also recorded: no more cardioprotective than cangrelor” and the “infarction, % of the risk zone” value is reported as 42.8±3.3%.
In the case of zVAD, in the experiment with coronary I/R, the infarct size result was “reduced infarct size”.
